# Assays:
# [1] = biological target: T1, baculovirus-expressed human trkA cytoplasmic domain (Homo sapiens, UniProt P04629); assay: Inhibition of trkA tyrosine kinase activity (ELISA-based assay); format: biochemical; conditions: for IC50: 40 μM ATP
# T1 construct: baculovirus-expressed human trkA cytoplasmic domain; made in house; host or cells: baculovirus expression system
# Protocol: Selected cyclic substituted fused pyrrolocarbazole and isoindolone compounds were tested for their ability to inhibit the kinase activity of baculovirus-expressed human trkA cytoplasmic domain using an ELISA-based assay as previously described (Angeles et al., Anal. Biochem. 236: 49-55, 1996). Briefly, the 96-well microtiter plate was coated with substrate solution (recombinant human phospholipase C-γ1/glutathione S-transferase fusion protein (Rotin et al., EMBO J., 11: 559-567, 1992). Inhibition studies were performed in 100 μl assay mixtures containing 50 mM Hepes, pH 7.4, 40 μM ATP, 10 mM MnCl2, 0.1% BSA, 2% DMSO, and various concentrations of inhibitor. The reaction was initiated by addition of trkA kinase and allowed to proceed for 15 minutes at 37° C. An antibody to phosphotyrosine (UBI) was then added, followed by a secondary enzyme-conjugated antibody, alkaline phosphatase-labelled goat antII-mouse IgG (Bio-Rad). The activity of the bound enzyme was measured via an amplified detection system (Gibco-BRL). Inhibition data were analyzed using the sigimoidal dose-response (variable slope) equation in GraphPad Prism.
# [2] = biological target: T2, VEGF receptor (human flk-1, KDR, VEGFR2) kinase domain (Homo sapiens, UniProt P35968); assay: Inhibition of vascular endothelial growth factor receptor kinase activity (ELISA); format: biochemical; conditions: for VEGF receptor kinase activity % Inh. @ 300 nM (values in parentheses) / inhibition at 0.3 µM: 300 nM compound; for IC50: 40 μM ATP; for inhibition at 0.3 µM: read-out: VEGF receptor kinase activity % Inh. @ 300 nM (values in parentheses)
# T2 construct: VEGF receptor (human flk-1, KDR, VEGFR2) kinase domain; made in house; host or cells: baculovirus expression system
# T2 sequence (P35968 834-1162 limits assumed): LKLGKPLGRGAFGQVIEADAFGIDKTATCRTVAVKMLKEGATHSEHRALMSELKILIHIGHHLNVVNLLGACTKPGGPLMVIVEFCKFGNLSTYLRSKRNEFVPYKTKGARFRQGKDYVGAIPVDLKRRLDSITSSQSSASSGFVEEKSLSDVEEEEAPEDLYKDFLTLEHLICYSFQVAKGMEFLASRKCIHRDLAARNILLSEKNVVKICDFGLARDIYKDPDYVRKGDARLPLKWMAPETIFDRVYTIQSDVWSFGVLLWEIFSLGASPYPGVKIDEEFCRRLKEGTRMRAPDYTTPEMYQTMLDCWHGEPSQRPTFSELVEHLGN
# Protocol: Cyclic substituted fused pyrrolocarbazole and isoindolone compounds were examined for their inhibitory effects on the kinase activity of baculovirus-expressed VEGF receptor (human flk-1, KDR, VEGFR2) kinase domain using the procedure described for the trkA kinase ELISA assay described above. The kinase reaction mixture, consisting of 50 mM Hepes, pH 7.4, 40 μM ATP, 10 mM MnCl2, 0.1% BSA, 2% DMSO, and various concentrations of inhibitor, was transferred to PLC-γ/GST-coated plates. VEGFR kinase was added and the reaction was allowed to proceed for 15 min. at 37 C. Detection of phosphorylated product was accomplished by addition of antII-phosphotyrosine antibody (UBI). A secondary enzymeconjugated antibody was delivered to capture the antibody-phosphorylated PLC-γ/GST complex. The activity of the bound enzyme was measured via an amplified detection system (Gibco-BRL). Inhibition data were analyzed using the sigmoidal dose-response (variable slope) equation in GraphPad Prism.
# [3] = biological target: T3, trkA (NIH3T3 cells transfected with trkA) (Homo sapiens, UniProt P04629); assay: Inhibition of NGF-stimulated trk phosphorylation in a whole cell preparation; format: cell-based; conditions: NGF 10 ng/ml; for Cell Score @ 100 nM (percent decrease in trk protein band): 100 nM compound; for Cell Score @ 1 uM (percent decrease in trk protein band): 1 uM compound
# T3 construct: expressed in transfected cells; host or cells: NIH3T3
# T3 sequence (P04629 33-796, species assumed): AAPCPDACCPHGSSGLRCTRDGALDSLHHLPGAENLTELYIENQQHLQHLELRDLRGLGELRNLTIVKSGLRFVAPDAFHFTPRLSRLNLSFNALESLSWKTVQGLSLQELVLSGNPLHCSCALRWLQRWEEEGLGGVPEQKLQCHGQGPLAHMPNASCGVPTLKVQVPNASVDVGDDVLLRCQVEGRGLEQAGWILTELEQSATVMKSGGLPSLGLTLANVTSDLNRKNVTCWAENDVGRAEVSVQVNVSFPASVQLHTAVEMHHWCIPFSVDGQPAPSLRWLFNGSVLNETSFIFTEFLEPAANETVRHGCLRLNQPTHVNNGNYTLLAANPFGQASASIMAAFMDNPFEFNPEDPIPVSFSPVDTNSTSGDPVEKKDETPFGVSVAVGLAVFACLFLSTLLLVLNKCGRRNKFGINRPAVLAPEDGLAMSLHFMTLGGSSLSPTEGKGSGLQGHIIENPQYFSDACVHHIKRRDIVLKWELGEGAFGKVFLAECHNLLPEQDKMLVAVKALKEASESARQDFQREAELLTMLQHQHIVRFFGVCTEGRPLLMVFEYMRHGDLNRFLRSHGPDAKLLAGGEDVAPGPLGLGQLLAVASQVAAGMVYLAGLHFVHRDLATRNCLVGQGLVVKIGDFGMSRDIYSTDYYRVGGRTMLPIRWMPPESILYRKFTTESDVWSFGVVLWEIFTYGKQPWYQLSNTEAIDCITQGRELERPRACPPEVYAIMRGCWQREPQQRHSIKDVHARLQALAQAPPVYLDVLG
# Protocol: NIH3T3 cells transfected with trkA were grown in 100 mm dishes. Subconfluent cells were serum-starved by replacing media with serum-free 0.05% BSA-DMEM containing compound (100 nM and 1 μM) or DMSO (added to controls) for one hour at 37° C. NGF (Harlan/Bioproducts for Science) was then added to the cells at a concentration of 10 ng/ml for 5 minutes. Cells were lysed in buffer containing detergent and protease inhibitors. Clarified cell lysates were normalized to protein using BCA method and immunoprecipitated with antII-trk antibody. Polyclonal antII-trk antibody was prepared against a peptide corresponding to the 14 amino acids at the carboxy terminus of trk (Martin-Zanca et al., Mol. Cell. Biol. 9: 24-33, 1989). The immune complexes were collected on Protein A Sepharose beads (Sigma Chem. Co., St. Lois, Mo.), separated by SDS polyacrylamide gel electrophoresis (SDS-PAGE), and transferred to a polyvinylidene difluoride (PVDF) membrane. The membrane was immunoblotted with antII-phosphotyrosine antibody (UBI), followed by incubation with horseradish peroxidase coupled goat antII-mouse IgG (Bio-Rad Laboratories, Hercules, Calif.). Phosphorylated proteins were visualized using ECL (Arnersham Life Science, Inc., Arlington Heights, Ill.). The area of the trk protein band was measured and compared to NGF-stimulated control. The inhibition scoring system used, based on percent decrease in trk protein band, was as follows: 0=no decrease; 1=1-25%; 2=26-49%; 3=50-75%; 4=76-100%.
# T1 sequence (P04629 440-796 limits assumed): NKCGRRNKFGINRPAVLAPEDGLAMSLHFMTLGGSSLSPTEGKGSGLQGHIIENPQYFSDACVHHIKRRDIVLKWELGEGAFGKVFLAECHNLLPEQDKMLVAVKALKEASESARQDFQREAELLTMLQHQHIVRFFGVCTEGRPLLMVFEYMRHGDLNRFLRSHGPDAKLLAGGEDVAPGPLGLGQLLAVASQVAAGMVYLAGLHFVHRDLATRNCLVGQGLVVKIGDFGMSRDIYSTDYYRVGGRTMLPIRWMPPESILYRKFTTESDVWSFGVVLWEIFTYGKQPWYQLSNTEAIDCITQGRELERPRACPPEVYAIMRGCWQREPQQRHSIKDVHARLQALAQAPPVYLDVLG
structure (smiles),measurement,setting,value
O=C1NCc2c1c1c(c3[nH]c4ccccc4c23)C(C2CSCC2O)c2ccccc2-1 (centres unmarked) [II-11],IC50,[1],139 nM
"CCOC1COCC(C)(C2c3ccccc3-c3c4c(c5c([nH]c6ccccc65)c32)CNC4=O)O1 (single isomer, unassigned) [II-51d]",VEGF receptor kinase activity % Inh. @ 300 nM (values in parentheses),[2]; 0.3 µM,(48) %
same,trkA kinase activity % Inh. @ 300 nM (values in parentheses),"[1]; 300 nM compound, 0.3 µM",(58) %
O=C1NCc2c1c1c(c3[nH]c4ccccc4c23)C(C2CCCCO2)c2ccccc2-1 (centres unmarked) [II-13],IC50,[1],186 nM
O=C1NCc2c1c1c(c3[nH]c4ccccc4c23)C(C2(O)CCC2)c2ccccc2-1 (centres unmarked) [II-18],trkA kinase activity % Inh. @ 300 nM (values in parentheses),[1]; 300 nM compound,(45) %
O=C1NCc2c1c1c(c3c2c2cc(Br)ccc2n3CC2CO2)Cc2ccccc2-1 (racemic) [II-57],IC50,[2],380 nM
O=C1NCc2c1c1c(c3c2c2ccccc2n3C[C@H]2CO2)Cc2ccccc2-1 [II-01c],IC50,[2],168 nM
same,IC50,[1],163 nM
C=CC1(C2c3ccccc3-c3c4c(c5c([nH]c6ccccc65)c32)CNC4=O)CCCO1 (centres unmarked) [II-28],IC50,[1],138 nM
CC1(C2c3ccccc3-c3c4c(c5c([nH]c6ccccc65)c32)C(=O)NC4)CCCO1 (centres unmarked) [II-37],IC50,[1],191 nM
"CC1(C2c3ccccc3-c3c4c(c5c([nH]c6ccccc65)c32)CNC4=O)CCCO1 (single isomer, unassigned) [II-30b]",trkA kinase activity % Inh. @ 300 nM (values in parentheses),[1]; 300 nM compound,(32) %
CC1(C)OC2CC(O)(C3c4ccccc4-c4c5c(c6c([nH]c7ccccc76)c43)CNC5=O)OC2O1 (mixture of isomers) [II-48],trkA kinase activity % Inh. @ 300 nM (values in parentheses),[1]; 300 nM compound,(46) %
O=C1CCCC(C2c3ccccc3-c3c4c(c5c([nH]c6ccccc65)c32)CNC4=O)O1 (centres unmarked) [II-05],IC50,[1],130 nM
CCOC1CCC(C2c3ccccc3-c3c4c(c5c([nH]c6ccccc65)c32)CNC4=O)O1 (centres unmarked) [II-40b],IC50,[2],1420 nM
same,IC50,[1],59 nM
"CCOC1CCC(CO)(C2c3cc(OC)ccc3-c3c4c(c5c([nH]c6ccccc65)c32)CNC4=O)O1 (single isomer, unassigned) [II-54]",IC50,[2],122 nM
same,IC50,[1],59 nM
same,Cell Score @ 100 nM (percent decrease in trk protein band),[3],2 (2=26-49%)
same,Cell Score @ 1 uM (percent decrease in trk protein band),[3],4 (4=76-100%)
CC(=O)OCC1(C2c3ccccc3-c3c4c(c5c([nH]c6ccccc65)c32)CNC4=O)CCCO1 (centres unmarked) [II-22],IC50,[1],95 nM
COCCOCOCC1(C2c3ccccc3-c3c4c(c5c([nH]c6ccccc65)c32)CNC4=O)CCC(=O)O1 (mixture of isomers) [II-31],IC50,[1],173 nM
O=C1NCc2c1c1c(c3c2c2ccccc2n3C[C@@H]2CO2)Cc2ccccc2-1 [II-01b],IC50,[2],266 nM
O=C1CCC(C2c3ccccc3-c3c4c(c5c([nH]c6ccccc65)c32)CNC4=O)O1 (centres unmarked) [II-06],inhibition at 0.3 µM,[2],56%
same,IC50,[1],90 nM
same,Cell Score @ 100 nM (percent decrease in trk protein band),[3],1 (1=1-25%)
same,Cell Score @ 1 uM (percent decrease in trk protein band),[3],2 (2=26-49%)
CC(=O)N1CCC(O)(C2c3ccccc3-c3c4c(c5c([nH]c6ccccc65)c32)CNC4=O)CC1 (centres unmarked) [II-24],trkA kinase activity % Inh. @ 300 nM (values in parentheses),[1]; 300 nM compound,(34) %
"CCOC(=O)C1C(=O)CCC1C1c2ccccc2-c2c3c(c4c([nH]c5ccccc54)c21)C(=O)NC3=O (single isomer, unassigned) [II-56]",trkA kinase activity % Inh. @ 300 nM (values in parentheses),[1]; 300 nM compound,(12) %
O=C1CCC(C2c3ccccc3-c3c4c(c5c([nH]c6ccccc65)c32)CNC4=O)=NN1 (centres unmarked) [II-49],IC50,[1],321 nM
O=C1NCc2c1c1c(c3c2c2ccccc2n3CC2CO2)Cc2ccccc2-1 (racemic) [II-01a],IC50,[1],92 nM
CCOC1COCC(C)(C2c3ccccc3-c3c4c(c5c([nH]c6ccccc65)c32)CNC4=O)O1 (mixture of isomers) [II-51bc],VEGF receptor kinase activity % Inh. @ 300 nM (values in parentheses),[2]; 0.3 µM,(62) %
same,trkA kinase activity % Inh. @ 300 nM (values in parentheses),"[1]; 300 nM compound, 0.3 µM",(56) %
O=C1NCc2c1c1c(c3[nH]c4ccccc4c23)C(C2(CCCCl)CCCO2)c2ccccc2-1 (centres unmarked) [II-19],inhibition at 0.3 µM,[2],46%
same,IC50,[1],162 nM
CCN1CCCC(O)(C2c3ccccc3-c3c4c(c5c([nH]c6ccccc65)c32)CNC4=O)C1 (mixture of isomers) [II-16],trkA kinase activity % Inh. @ 300 nM (values in parentheses),[1]; 300 nM compound,(38) %
O=C1NCc2c1c1c(c3[nH]c4ccccc4c23)C(C2(c3cccs3)CCCO2)c2ccccc2-1 (centres unmarked) [II-09],IC50,[1],134 nM
CC1(C2c3ccccc3-c3c4c(c5c([nH]c6ccccc65)c32)CNC4=O)CCCCO1 (centres unmarked) [II-12],IC50,[1],241 nM
CCOC1COCC(C)(C2c3ccccc3-c3c4c(c5c([nH]c6ccccc65)c32)CNC4=O)O1 (centres unmarked) [II-51a],IC50,[2],170 nM
same,inhibition at 0.3 µM,"[1]; 300 nM compound, read-out: trkA kinase activity % Inh. @ 300 nM (values in parentheses)",56%
"O=C1NCc2c1c1c(c3[nH]c4ccccc4c23)C(C2CCCC2)c2ccccc2-1 (single isomer, unassigned) [II-59]",trkA kinase activity % Inh. @ 300 nM (values in parentheses),[1]; 300 nM compound,(10) %
C=C1COC(C)(C2c3ccccc3-c3c4c(c5c([nH]c6ccccc65)c32)CNC4=O)C1 (mixture of isomers) [II-25],trkA kinase activity % Inh. @ 300 nM (values in parentheses),[1]; 300 nM compound,(27) %
CCOC1CCC(C2c3ccccc3-c3c4c(c5c([nH]c6ccccc65)c32)CNC4=O)O1 (centres unmarked) [II-40a],IC50,[1],54 nM
CC1(C2c3ccccc3-c3c4c(c5c([nH]c6ccccc65)c32)CNC4=O)CC(=O)CO1 (centres unmarked) [II-27],IC50,[1],166 nM
CCOCc1ccc2c(c1)c1c3c(c4c(c1n2CC1CO1)Cc1ccccc1-4)C(=O)NC3 (racemic) [II-58],trkA kinase activity % Inh. @ 300 nM (values in parentheses),[1]; 300 nM compound,(23) %
O=C1NCc2c1c1c(c3[nH]c4ccccc4c23)C(C2OCCC2O)c2ccccc2-1 (mixture of isomers) [II-43],IC50,[1],110 nM
CCC1(C2(CO)CCCO2)c2ccccc2-c2c3c(c4c([nH]c5ccccc54)c21)CNC3=O (mixture of isomers) [II-34],VEGF receptor kinase activity % Inh. @ 300 nM (values in parentheses),[2],(52) %
same,trkA kinase activity % Inh. @ 300 nM (values in parentheses),[1]; 300 nM compound,(38) %
O=C1NCc2c1c1c(c3[nH]c4ccccc4c23)C(C2(CCl)CCCO2)c2ccccc2-1 (centres unmarked) [II-44],IC50,[2],> 1000 nM
same,IC50,[1],80 nM
"O=C1NCc2c1c1c(c3[nH]c4ccccc4c23)C(C2CCOC2=O)c2ccccc2-1 (single isomer, unassigned) [II-60]",VEGF receptor kinase activity % Inh. @ 300 nM (values in parentheses),[2],(45) %
"CC1(C2c3ccccc3-c3c4c(c5c([nH]c6ccccc65)c32)CNC4=O)CCCO1 (single isomer, unassigned) [II-30a]",inhibition at 0.3 µM,[2],59%
same,IC50,[1],214 nM
O=C1NCc2c1c1c(c3[nH]c4ccccc4c23)C(C2(O)CCCCC2)c2ccccc2-1 (centres unmarked) [II-50],IC50,[1],113 nM

# From US6841567B1, “Cyclic substituted fused pyrrolocarbazoles and isoindolones” (Cephalon, Inc., priority 1999, dated 2005)
